Laboratory results: PubChem BioAssay AID248 (DTP/NCI, 2004)
“And” between values parts separate entries of the source, which are not always exact repeats. Equal entries are not always repeated. Toxic doses and inconclusive results are not listed. Cut-off read from the data, not from the text of the source: active = T/C of 150% or more; inactive = T/C below 125%.

Tested on: L1210 leukemia ip in BDF1 mice, survival T/C
Experiment: NCI In Vivo Anticancer Drug Screen. Data for tumor model L1210 Leukemia (intraperitoneal) in B6D2F1 (BDF1) mice
Settings: endpoint: mean survival time, higher = longer survival
Method in brief: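 Tumor was transplanted into mice, which were then dosed with test compound or vehicle alone. Survival was recorded for each group, and the treated figure was expressed relative to the control figure.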

[1] = dose: 100.0 mg/kg/injection, schedule: Q04DX003 (ip), vehicle: Klucel (hydroxypropylcellulose) (HPC)
[2] = dose: 200.0 mg/kg/injection, schedule: Q04DX003 (ip), vehicle: Klucel (hydroxypropylcellulose) (HPC)
[3] = dose: 400.0 mg/kg/injection, schedule: Q04DX003 (ip), vehicle: Klucel (hydroxypropylcellulose) (HPC)
[4] = dose: 100.0 mg/kg/injection, schedule: Q04DX002 (ip), vehicle: saline with Tween-80
[5] = dose: 200.0 mg/kg/injection, schedule: Q04DX002 (ip), vehicle: saline with Tween-80
[6] = dose: 400.0 mg/kg/injection, schedule: Q04DX002 (ip), vehicle: saline with Tween-80
[7] = dose: 100.0 mg/kg/injection, schedule: Q01DX001 (ip), vehicle: saline
[8] = dose: 200.0 mg/kg/injection, schedule: Q01DX001 (ip), vehicle: saline
[9] = dose: 25.0 mg/kg/injection, schedule: Q01DX009 (ip), vehicle: Klucel (hydroxypropylcellulose) (HPC)
[10] = dose: 50.0 mg/kg/injection, schedule: Q01DX009 (ip), vehicle: Klucel (hydroxypropylcellulose) (HPC)
[11] = dose: 100.0 mg/kg/injection, schedule: Q01DX009 (ip), vehicle: Klucel (hydroxypropylcellulose) (HPC)
[12] = dose: 100.0 mg/kg/injection, schedule: Q04DX003 (ip), vehicle: saline
[13] = dose: 200.0 mg/kg/injection, schedule: Q04DX003 (ip), vehicle: saline
[14] = dose: 400.0 mg/kg/injection, schedule: Q04DX003 (ip), vehicle: saline
[15] = dose: 100.0 mg/kg/injection, schedule: Q04DX002 (ip), vehicle: Klucel (hydroxypropylcellulose) (HPC)
[16] = dose: 200.0 mg/kg/injection, schedule: Q04DX002 (ip), vehicle: Klucel (hydroxypropylcellulose) (HPC)
[17] = dose: 400.0 mg/kg/injection, schedule: Q04DX002 (ip), vehicle: Klucel (hydroxypropylcellulose) (HPC)

Measured: T/C

CCCCCCCCCCOC(=O)C[n+]1ccc(C(N)=O)cc1
inactive: dose: 12.5 mg/kg/injection, schedule: Q04DX003 (ip), vehicle: saline 98 % of control | dose: 25.0 mg/kg/injection, schedule: Q04DX003 (ip), vehicle: saline 91 % of control | dose: 50.0 mg/kg/injection, schedule: Q04DX003 (ip), vehicle: saline 91 % of control

O=C(c1ccc(Cl)cc1)c1ccc(Cl)cc1
inactive: [1] 105 % of control | [2] 100 % of control | [3] 96 % of control

CC(C)CC(C=O)(CCN1CCCCC1)c1cccc2ccccc12 (stereo not drawn)
inactive: [4] 87 % of control and 88 % of control | dose: 100.0 mg/kg/injection, schedule: Q04DX002 (ip), vehicle: saline 98 % of control | [5] 94 % of control and 91 % of control | dose: 200.0 mg/kg/injection, schedule: Q04DX002 (ip), vehicle: saline 91 % of control | [6] 91 % of control

ClCCOc1ccccc1
inactive: [7] 95 % of control | [8] 101 % of control

O=C1c2ccccc2C(=O)N1SN1C(=O)c2ccccc2C1=O
inactive: [9] 92 % of control | [10] 93 % of control | [11] 97 % of control

O=C(Oc1ccccc1I)c1cc(I)c(I)c(I)c1
inactive: [1] 92 % of control | [3] 94 % of control

COc1ccc(N=Cc2ccc(OC(=O)c3ccccc3)c(OC)c2)cc1
inactive: [4] 100 % of control | [5] 100 % of control | [6] 93 % of control

CCOC(=O)CCCN(c1ccccc1)S(=O)(=O)c1ccc(C)cc1
inactive: dose: 100.0 mg/kg/injection, schedule: Q01DX001 (ip), vehicle: carboxymethylcellulose (CMC) 93 % of control | dose: 200.0 mg/kg/injection, schedule: Q01DX001 (ip), vehicle: carboxymethylcellulose (CMC) 96 % of control | dose: 400.0 mg/kg/injection, schedule: Q01DX001 (ip), vehicle: carboxymethylcellulose (CMC) 107 % of control

NC(=O)c1ccccc1OC(=O)Nc1cc([N+](=O)[O-])ccc1F
inactive: [9] 104 % of control | [10] 107 % of control | [11] 94 % of control and 92 % of control

COc1cc(OC)c(/C=C/c2ccc3ccccc3[n+]2[O-])c(OC)c1
inactive: dose: 100.0 mg/kg/injection, schedule: Q04DX002 (ip), vehicle: gum acacia 95 % of control | dose: 200.0 mg/kg/injection, schedule: Q04DX002 (ip), vehicle: gum acacia 95 % of control | dose: 400.0 mg/kg/injection, schedule: Q04DX002 (ip), vehicle: gum acacia 100 % of control

COC1=C(Nc2cccc(C)c2C)C(=O)C(OC)=C(Nc2cccc(C)c2C)C1=O
inactive: dose: 50.0 mg/kg/injection, schedule: Q01DX001 (ip), vehicle: saline 97 % of control | [7] 103 % of control | dose: 100.0 mg/kg/injection, schedule: Q01DX009 (ip), vehicle: saline 111 % of control | [12] 98 % of control | [8] 115 % of control | dose: 200.0 mg/kg/injection, schedule: Q01DX009 (ip), vehicle: saline 96 % of control | [13] 91 % of control | dose: 400.0 mg/kg/injection, schedule: Q01DX001 (ip), vehicle: saline 103 % of control | dose: 400.0 mg/kg/injection, schedule: Q01DX009 (ip), vehicle: saline 90 % of control | [14] 91 % of control

O=C(O)c1ccc(NC(=S)S)cc1
inactive: [15] 103 % of control | [16] 98 % of control | [17] 98 % of control

ClC1=C(Cl)C2(Cl)C3C4CCC(C4)C3C1(Cl)C2(Cl)Cl (stereo not drawn)
inactive: [13] 121 % of control | [14] 108 % of control

CCOC(=O)Nc1cc(NC(C)CCCN(CC)CC)c2ncc(-c3ccc(Cl)c(Cl)c3)nc2n1 (stereo not drawn) (tested in a mixture with another compound)
inactive: dose: 6.25 mg/kg/injection, schedule: Q01DX001 (ip), vehicle: saline 99 % of control | dose: 6.25 mg/kg/injection, schedule: Q01DX009 (ip), vehicle: saline 91 % of control | dose: 12.5 mg/kg/injection, schedule: Q01DX001 (ip), vehicle: saline 101 % of control | dose: 12.5 mg/kg/injection, schedule: Q01DX009 (ip), vehicle: saline 95 % of control | dose: 25.0 mg/kg/injection, schedule: Q01DX001 (ip), vehicle: saline 89 % of control | dose: 25.0 mg/kg/injection, schedule: Q01DX009 (ip), vehicle: saline 106 % of control | [7] 103 % of control

CN1C(=O)CCN(CCCN2CCC(=O)N(C)C2=S)C1=S
inactive: [4] 95 % of control | [5] 95 % of control | [6] 88 % of control

C[SH+]c1ccccc1N=Cc1ccccn1.C[SH+]c1ccccc1N=Cc1ccccn1.[Ni+2].[O-][Cl+3]([O-])([O-])[O-]
inactive: dose: 88.8 mg/kg/injection, schedule: Q01DX001 (ip), vehicle: saline 93 % of control and 96 % of control | [7] 105 % of control | dose: 133.4 mg/kg/injection, schedule: Q01DX001 (ip), vehicle: saline 96 % of control and 105 % of control | dose: 300.0 mg/kg/injection, schedule: Q01DX001 (ip), vehicle: saline 95 % of control and 102 % of control

CN(C)CCOC(=O)c1ccccc1C=O
inactive: [15] 105 % of control | [16] 98 % of control | [17] 102 % of control

O=C(OC1CCCCC1c1ccccc1)c1cc([N+](=O)[O-])cc([N+](=O)[O-])c1 (stereo not drawn)
inactive: dose: 100.0 mg/kg/injection, schedule: Q01DX001 (ip), vehicle: other 89 % of control | dose: 200.0 mg/kg/injection, schedule: Q01DX001 (ip), vehicle: other 89 % of control | dose: 400.0 mg/kg/injection, schedule: Q01DX001 (ip), vehicle: other 89 % of control

Cc1ccc(S(=O)(=O)N2CCCCC2)cc1
inactive: [12] 91 % of control | [13] 96 % of control | [14] 97 % of control

NC(=O)NC1CC1(c1ccccc1)c1ccccc1 (stereo not drawn)
inactive: dose: 42.0 mg/kg/injection, schedule: Q01DX009 (ip), vehicle: other 105 % of control | dose: 72.0 mg/kg/injection, schedule: Q01DX009 (ip), vehicle: other 111 % of control | dose: 120.0 mg/kg/injection, schedule: Q01DX009 (ip), vehicle: other 105 % of control | dose: 200.0 mg/kg/injection, schedule: Q01DX009 (ip), vehicle: other 93 % of control

N#CC1CN(c2ccccc2)CC1=O (stereo not drawn)
inactive: [11] 97 % of control | dose: 200.0 mg/kg/injection, schedule: Q01DX009 (ip), vehicle: Klucel (hydroxypropylcellulose) (HPC) 96 % of control

ClC(C[n+]1ccccc1)c1ccccc1 (stereo not drawn)
inactive: [7] 100 % of control

CCOC(=O)c1cnc(SC)nc1NCCO
inactive: [1] 97 % of control | [2] 95 % of control | [3] 97 % of control
